These molecules were tested against T1, RORc ligand binding domain (Homo sapiens, UniProt P51449) (assay: In Vitro RORc Ligand Binding Assay). Settings: radioligand 25-[3H]hydroxycholesterol 6 nM; 0.6 ug/mL RORc receptor; 3 h at 25° C.; read-out: IC50 values (micromolar) for RORc affinity.
T1 construct: host or cells: E. coli
T1 sequence (P51449 269-508 limits assumed): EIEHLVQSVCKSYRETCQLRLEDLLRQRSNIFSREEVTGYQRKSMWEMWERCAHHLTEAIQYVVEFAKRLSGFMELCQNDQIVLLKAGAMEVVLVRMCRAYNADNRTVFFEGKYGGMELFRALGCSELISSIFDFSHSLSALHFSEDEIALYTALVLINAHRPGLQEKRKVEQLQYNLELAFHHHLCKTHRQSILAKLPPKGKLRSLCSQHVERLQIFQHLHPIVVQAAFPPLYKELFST
Experimental: This assay was used to determine a compound's potency in inhibiting activity of RORc by determining, Kiapp, IC50, or percent inhibition values.
On day of the assay, 100 uL of 0.05% CHAPS (in deionized H2O) was added to all wells of the GFB Unifilter plate and allowed soak for 1 h. A wash buffer of 50 mM HEPES (pH 7.4), 150 mM NaCl, and 5 mM MgCl2 was prepared to wash the filter plate. To prepare an assay buffer, BSA was added to the wash buffer to reach 0.01% and DTT was added to reach 1 mM.
The 20× compound stocks were diluted in DMSO with Assay Buffer 4-fold to reach 5× the final test concentration in 25% DMSO (10 uL compound+30 uL Assay Buffer). Solutions were mixed by aspiration several times with a pipette set on 50 uL volume. For the assay, 10 uL of 5× compound stock solutions in 25% DMSO were added to the assay plate in duplicate.
For two point screening, 10 mM stock compound solutions were diluted in DMSO to obtain 200 uM (20× the high test concentration) and then diluted 10-fold further to reach 20 uM (20× the low test concentration). The 20× stocks were diluted 4-fold with Assay Buffer (10 uL compound+30 uL Assay Buffer) to reach 5× the test concentrations (50 uM and 5 uM) and 10 uL were added to two assay plates for the duplicate wells. With each concentration tested on 2 plates, each set of 80 compounds used 4 assay plates (1 uM and 10 uM, with n=2).
For 25-hydroxycholesterol in 25% DMSO/75% Assay Buffer; 10 uL per well was used for NSB samples. Wells for Total Binding and No Receptor sample determination contained 10 uL of 25% DMSO/75% Assay Buffer per well.
Radioligand (25-[^3H]hydroxycholesterol) Preparation
Added 20 uL to all wells to reach 6 nM final in the assay.
Stock receptor solution was diluted in assay buffer to obtain 1.5 ug/mL in Assay Buffer. 20 uL was added to all wells. For No R samples, 20 uL Assay Buffer was substituted for receptor solution.
Assay plates were 96-well polypropylene V-bottom plates. 10 uL of 5× compound in 25% DMSO/75% Assay Buffer was added to Test wells. 10 uL of 25% DMSO/75% Assay Buffer was added to Total Binding or No Receptor wells. 10 uL of 5 uM 25-hydroxycholesterol in 25% DMSO/75% Assay Buffer was added to NSB wells. […] 20 uL of 1.5 ug/mL RORc receptor was added to wells (or 40 uL Assay Buffer to No R wells). Following addition to the wells, the plates were incubated 3 h at 25° C.
Using a Packard Filtermate Harvester, the filter plates were washed 4 times following transfer of the incubated samples. Plates were dry-filtered completely (2 h at 50° C. or overnight at room temperature). 50 uL Microscint 0 was added to all wells and read on Topcount protocol Inverted.
Final concentrations were as follows: 50 mM HEPES buffer (pH 7.4); 150 mM NaCl; 1 mM DTT; 5 mM MgCl2; 0.01% BSA; 5% DMSO; 0.6 ug/mL RORc receptor; 6 nM 25-[^3H]hydroxycholesterol. For NSB wells, 1 uM 25-hydroxycholesterol was also present.

Row | Compound | IC50
1 | CC(C)CN(Cc1ccc(-c2cccc(C(=O)N(C)C)c2)s1)S(=O)(=O)Cc1ccccc1 [Compound 43, 3-{5-[(Isobutyl-phenylmethanesulfonyl-amino)-methyl]-thiophen-2-yl}-N,N-dimethyl-benzamide] | 2.4 µM
2 | CC(C)CN(Cc1ccc(-c2cnn(C)c2)s1)S(=O)(=O)Cc1ccccc1 [Compound 45, N-Isobutyl-N-[5-(1-methyl-1H-pyrazol-4-yl)-thiophen-2-ylmethyl]-C-phenyl-methanesulfonamide] | 0.612 µM
3 | CC(C)CN(Cc1ccc(-c2ccnc(N)c2)s1)S(=O)(=O)Cc1ccccc1 [Compound 46, N-[5-(2-Amino-pyridin-4-yl)-thiophen-2-ylmethyl]-N-isobutyl-C-phenyl-methanesulfonamide] | 1.2 µM
4 | Cc1n[nH]c(C)c1-c1ccc(CN(CC(C)C)S(=O)(=O)Cc2ccccc2)s1 [Compound 49, N-[5-(3,5-Dimethyl-1H-pyrazol-4-yl)-thiophen-2-ylmethyl]-N-isobutyl-C-phenyl-methanesulfonamide] | 0.377 µM
5 | CC(C)CN(Cc1ccc(-c2cncc(C#N)c2)s1)S(=O)(=O)Cc1ccccc1 [Compound 50, N-[5-(5-Cyano-pyridin-3-yl)-thiophen-2-ylmethyl]-N-isobutyl-C-phenyl-methanesulfonamide] | 3.1 µM
6 | CNC(=O)c1ccc(-c2ccc(CN(CC(C)C)S(=O)(=O)Cc3ccccc3)s2)cn1 [Compound 51, 5-{5-[(Isobutyl-phenylmethanesulfonyl-amino)-methyl]-thiophen-2-yl}-pyridine-2-carboxylic acid methylamide] | 4.4 µM
7 | CC(C)CN(Cc1ccc(-c2cccc(S(C)(=O)=O)c2)s1)S(=O)(=O)C1CCCC1 [Compound 60, Cyclopentanesulfonic acid isobutyl-[5-(3-methanesulfonyl-phenyl)-thiophen-2-ylmethyl]-amide] | 1.8 µM
8 | Cc1nn(C)c(C)c1S(=O)(=O)N(Cc1ccc(-c2cccc(S(C)(=O)=O)c2)s1)CC(C)C [Compound 61, 1,3,5-Trimethyl-1H-pyrazole-4-sulfonic acid isobutyl-[5-(3-methanesulfonyl-phenyl)-thiophen-2-ylmethyl]-amide] | 3.6 µM
9 | CC(C)CN(Cc1ccc(-c2cccc(S(C)(=O)=O)c2)s1)S(=O)(=O)c1cccnc1 [Compound 62, Pyridine-3-sulfonic acid isobutyl-[5-(3-methanesulfonyl-phenyl)-thiophen-2-ylmethyl]-amide] | 4.2 µM
10 | CC(C)CN(Cc1ccc(-c2cc(F)c(CO)c(S(C)(=O)=O)c2)s1)S(=O)(=O)Cc1ccccc1 [Compound 63, N-((5-(3-fluoro-4-(hydroxymethyl)-5-(methylsulfonyl)phenyl)thiophen-2-yl)methyl)-N-isobutyl-1-phenylmethanesulfonamide] | 5 µM
11 | CC(C)CN(Cc1ncc(-c2ccc(S(C)(=O)=O)c(F)c2)s1)S(=O)(=O)Cc1ccccc1 [Compound 64, N-((5-(3-fluoro-4-(methylsulfonyl)phenyl)thiazol-2-yl)methyl)-N-isobutyl-1-phenylmethanesulfonamide] | 2 µM
12 | CC(C)CN(Cc1cccc(-c2cccc(S(C)(=O)=O)c2)c1)S(=O)(=O)Cc1ccccc1 [Compound 67, N-isobutyl-N-((3′-(methylsulfonyl)-[1,1′-biphenyl]-3-yl)methyl)-1-phenylmethanesulfonamide] | 3 µM

The remaining lines, values ahead:

Row | IC50 | Compound
13 | 0.614 µM | CC(C)CN(Cc1ccc(-c2ccncc2)s1)S(=O)(=O)Cc1ccccc1 [Compound 38, N-Isobutyl-C-phenyl-N-(5-pyridin-4-yl-thiophen-2-ylmethyl)-methanesulfonamide]
14 | 1.4 µM | CC(C)CN(Cc1ccc(-c2cccc(C(N)=O)c2)s1)S(=O)(=O)Cc1ccccc1 [Compound 41, 3-{5-[(Isobutyl-phenylmethanesulfonyl-amino)-methyl]-thiophen-2-yl}-benzamide]
15 | 2.5 µM | CC(C)CN(Cc1ccc(-c2cncc(S(C)(=O)=O)c2)s1)S(=O)(=O)Cc1ccccc1 [Compound 44, N-Isobutyl-N-[5-(5-methanesulfonyl-pyridin-3-yl)-thiophen-2-ylmethyl]-C-phenyl-methanesulfonamide]
16 | 3 µM | CC(=O)Nc1ccc(-c2ccc(CN(CC(C)C)S(=O)(=O)Cc3ccccc3)s2)cn1 [Compound 52, N-(5-{5-[(Isobutyl-phenylmethanesulfonyl-amino)-methyl]-thiophen-2-yl}-pyridin-2-yl)-acetamide]
17 | 0.195 µM | CC(C)N(Cc1ccc(-c2ccc(S(C)(=O)=O)cc2)s1)S(=O)(=O)Cc1ccccc1 [Compound 56, N-Isopropyl-N-[5-(4-methanesulfonyl-phenyl)-thiophen-2-ylmethyl]-C-phenyl-methanesulfonamide]
18 | 5.1 µM | COCCN(Cc1ccc(-c2ccc(S(C)(=O)=O)cc2)s1)S(=O)(=O)Cc1ccccc1 [Compound 57, N-[5-(4-Methanesulfonyl-phenyl)-thiophen-2-ylmethyl]-N-(2-methoxy-ethyl)-C-phenyl-methanesulfonamide]
19 | 3.1 µM | CCN(Cc1ccc(-c2ccc(S(C)(=O)=O)cc2)s1)S(=O)(=O)Cc1ccccc1 [Compound 58, N-Ethyl-N-[5-(4-methanesulfonyl-phenyl)-thiophen-2-ylmethyl]-C-phenyl-methanesulfonamide]
20 | 0.278 µM | CC(C)CN(Cc1cc(-c2ccc(S(C)(=O)=O)cc2)cs1)S(=O)(=O)Cc1ccccc1 [Compound 59, N-Isobutyl-N-[4-(4-methanesulfonyl-phenyl)-thiophen-2-ylmethyl]-C-phenyl-methanesulfonamide]
21 | 2 µM | CC(C)CN(Cc1ccc(-c2ccc(S(C)(=O)=O)cc2)cn1)S(=O)(=O)Cc1ccccc1 [Compound 65, N-isobutyl-N-((5-(4-(methylsulfonyl)phenyl)pyridin-2-yl)methyl)-1-phenylmethanesulfonamide]
22 | 0.77 µM | CC(C)CN(Cc1ccc(-c2ccc(S(C)(=O)=O)cc2)nc1)S(=O)(=O)Cc1ccccc1 [Compound 66, N-isobutyl-N-((6-(4-(methylsulfonyl)phenyl)pyridin-3-yl)methyl)-1-phenylmethanesulfonamide]
23 | 0.32 µM | CC(C)CN(Cc1csc(-c2ccc(S(C)(=O)=O)cc2)c1)S(=O)(=O)Cc1ccccc1 [Compound 68, N-isobutyl-N-((5-(4-(methylsulfonyl)phenyl)thiophen-3-yl)methyl)-1-phenylmethanesulfonamide]
24 | 0.074 µM | CC(C)CN(Cc1ccc(-c2ccc(S(C)(=O)=O)cc2)c(C#N)c1)S(=O)(=O)Cc1ccccc1 [Compound 69, N-((2-cyano-4′-(methylsulfonyl)-[1,1′-biphenyl]-4-yl)methyl)-N-isobutyl-1-phenylmethanesulfonamide]

From patent US20150105429A1, “BENZYL SULFONAMIDE DERIVATIVES AS RORC MODULATORS” (Genentech, Inc., priority 2011, published 2015)
